Legend:
[1] = molecular target: T1, adenosine A1 receptors (Homo sapiens, UniProt P30542); assay: Adenosine agonism indirectly by way of gene expression (luciferase test), A1 cells; assay type: cell-based; settings: percent following prestimulation of adenylate cyclase with 1 μ molar forskolin (=100%), agonists give <100%
T1 construct: expressed in transfected cells; host or cells: CHO (Chinese Hamster Ovary)
T1 sequence (P30542 1-326): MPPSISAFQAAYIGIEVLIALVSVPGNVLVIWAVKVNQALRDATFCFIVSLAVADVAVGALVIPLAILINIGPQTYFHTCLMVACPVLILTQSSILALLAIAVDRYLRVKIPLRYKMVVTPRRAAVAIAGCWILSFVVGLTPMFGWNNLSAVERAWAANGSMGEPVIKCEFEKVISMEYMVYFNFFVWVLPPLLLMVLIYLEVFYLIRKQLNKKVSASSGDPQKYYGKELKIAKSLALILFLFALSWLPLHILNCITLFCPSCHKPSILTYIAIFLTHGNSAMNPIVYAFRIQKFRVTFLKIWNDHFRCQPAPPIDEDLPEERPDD
Text: (§1) Cells of the CHO (Chinese Hamster Ovary) permanent cell line are transfected stably with the cDNA for the adenosine receptor subtypes A1, A2a and A2b. The adenosine A1 receptors are coupled to the adenylate cyclase by way of Gi proteins, while the adenosine A2a and A2b receptors are coupled by way of Gs proteins. In correspondence with this, the formation of cAMP in the cell is inhibited or stimulated, respectively. After that, expression of the luciferase is modulated by way of a cAMP-dependent promoter. The luciferase test is optimized, with the aim of high sensitivity and reproducibility, low variance and good suitability for implementation on a robot system, by varying several test parameters, such as cell density, duration of the growth phase and the test incubation, forskolin concentration and medium composition. The following test protocol is used for pharmacologically characterizing cells and for the robot-assisted substance test screening:
(§2) The stock cultures are grown, at 37° C. and under 5% CO2, in DMEM/F12 medium containing 10% FCS (foetal calf serum) and in each case split 1:10 after 2–3 days. The test cultures are seeded in 384-well plates at the rate of from 1 000 to 3 000 cells per well and grown at 37° C. for approx. 48 hours. […] After that, 35 μl of a solution which is composed of 50% lysis reagent (30 mM disodium hydrogenphosphate, 10% glycerol, 3% TritonX100, 25 mM TrisHCl, 2 mM dithiothreitol (DTT), pH 7.8) and 50% luciferase substrate solution (2.5 mM ATP, 0.5 mM luciferin, 0.1 mM coenzyme A, 10 mM tricine, 1.35 mM magnesium sulphate, 15 mM DTT, pH 7.8) are added to the test cultures, the plates are shaken for approx. 1 minute and the luciferase activity is measured using a camera system.
(§3) The table gives the % values of the corresponding reference stimulus. The measured values for the A2a and A2b receptors are values in percent of the maximum stimulation achieved by NECA; the measured values for the A1 receptor are values in percent following direct prestimulation of the adenylate cyclase with 1μ molar forskolin (corresponds to the 100% value).

[2] = molecular target: T2, adenosine A2a receptors (Homo sapiens, UniProt P29274); assay: Adenosine agonism indirectly by way of gene expression (luciferase test), A2a cells; assay type: cell-based; settings: percent of the maximum stimulation achieved by NECA
T2 construct: expressed in transfected cells; host or cells: CHO (Chinese Hamster Ovary)
T2 sequence (P29274 whole entry): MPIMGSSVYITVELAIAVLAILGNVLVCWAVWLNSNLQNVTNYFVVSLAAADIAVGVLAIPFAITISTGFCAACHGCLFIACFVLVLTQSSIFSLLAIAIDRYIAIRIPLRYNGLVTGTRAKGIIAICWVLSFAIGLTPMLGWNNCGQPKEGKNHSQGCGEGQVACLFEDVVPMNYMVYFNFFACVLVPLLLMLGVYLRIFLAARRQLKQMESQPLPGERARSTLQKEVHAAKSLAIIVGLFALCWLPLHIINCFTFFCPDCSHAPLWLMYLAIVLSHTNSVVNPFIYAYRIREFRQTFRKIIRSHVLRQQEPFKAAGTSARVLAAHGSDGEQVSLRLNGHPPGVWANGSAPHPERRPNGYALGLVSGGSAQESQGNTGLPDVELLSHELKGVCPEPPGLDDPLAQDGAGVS
Text: as §1, §2, §3

[3] = molecular target: T3, adenosine A2b receptors (Homo sapiens, UniProt P29275); assay: Adenosine agonism indirectly by way of gene expression (luciferase test), A2b cells; assay type: cell-based; settings: percent of the maximum stimulation achieved by NECA
T3 construct: expressed in transfected cells; host or cells: CHO (Chinese Hamster Ovary)
T3 sequence (P29275 1-332): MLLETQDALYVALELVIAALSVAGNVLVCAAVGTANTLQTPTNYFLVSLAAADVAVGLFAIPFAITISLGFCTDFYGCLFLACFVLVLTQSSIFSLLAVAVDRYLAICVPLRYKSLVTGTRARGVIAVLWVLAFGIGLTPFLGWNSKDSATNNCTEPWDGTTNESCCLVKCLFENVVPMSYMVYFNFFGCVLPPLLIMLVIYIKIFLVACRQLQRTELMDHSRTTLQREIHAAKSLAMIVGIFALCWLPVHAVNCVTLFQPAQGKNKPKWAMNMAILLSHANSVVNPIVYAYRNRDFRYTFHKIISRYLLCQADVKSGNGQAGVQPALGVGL
Text: as §1, §2, §3

[4] = Pharmacokinetic investigations, mouse; assay type: in vivo, mice; settings: plasma, po, 1 mg/kg p.o., read-out: Bioavailability following oral administration
Protocol: (§4) Pharmacokinetic data were determined after administering various substances i.v. or p.o. as solutions to mice, rats and dogs. For this, blood samples were collected up to 24 hours after administration. The concentrations of the unaltered substance were determined by bioanalytical methods (HPLC or HPLC-MS) in the plasma samples which were obtained from the blood samples. Pharmacokinetic parameters were subsequently ascertained from the plasma concentration time courses which had been obtained in this way. The following Table 2 gives the bioavailability in the different species.

[5] = Pharmacokinetic investigations, rat; assay type: in vivo, rats; settings: plasma, po, 1 mg/kg p.o., read-out: Bioavailability following oral administration
Protocol: as §4

[6] = Pharmacokinetic investigations, dog; assay type: in vivo, dogs; settings: plasma, po, 1 mg/kg p.o., read-out: Bioavailability following oral administration
Protocol: as §4

In the case of CC(=O)Nc1ccc(-c2c(C#N)c(N)nc(SCc3ccccn3)c2C#N)cc1 [Example 1, N-(4-{2-Amino-3,5-dicyano-6-[(2-pyridinylmethyl)sulphanyl]-4-pyridinyl}-phenyl)acetamide], the “Stimulation of adenosine receptors, A1, % of the reference stimulus” value (from here on “Stimulation … A1, % of the reference stimulus”) ([1]; 0.3 nmol compound) is reported as 44%, the “Stimulation … A1, % of the reference stimulus” value ([1]; 1 nmol compound) is reported as 9% and the “Stimulation … A1, % of the reference stimulus” value ([1]; 10 nmol compound) is reported as 5%. For the same compound, the “Stimulation of adenosine receptors, A2a, % of the reference stimulus” value (from here on “Stimulation … A2a, % of the reference stimulus”) ([2]; 0.3 nmol compound) was 1%, the “Stimulation … A2a, % of the reference stimulus” value ([2]; 1 nmol compound) was 24% and the “Stimulation … A2a, % of the reference stimulus” value ([2]; 10 nmol compound) was 57%. The “Stimulation of adenosine receptors, A2b, % of the reference stimulus” value (shortened to “Stimulation … A2b, % of the reference stimulus”) ([3]; 0.3 nmol compound) was 29%, the “Stimulation … A2b, % of the reference stimulus” value ([3]; 1 nmol compound) was 64% and the “Stimulation … A2b, % of the reference stimulus” value ([3]; 10 nmol compound) was 88%. It also gave a bioavailability [4] of 22.1%, a bioavailability [5] of 4.6% and a bioavailability [6] of 48.2%.

Source: patent US7045631B2, “Substituted 2-thio-3, 5-dicyano-4-phenyl-6-aminopyridines and their use as adenosine receptor-selective ligands” (Bayer Aktiengesellschaft, priority 2001, dated 2006)
